Experiments:
Test in all cases: relative viability (nuclei count vs DMSO), 5 days (fraction); higher = more cells survive
[1] = test system: HCC-827
In short: (§1)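 For relative viability, nuclei counts in treated wells were divided by those in vehicle wells. Lung cancer cell lines had been pin-tool dosed in 1536-well plates the day after seeding and cultured for 5 days, then fixed and stained in one step (final 0.05% Triton X-100, 1% formaldehyde, 1 ug/ml Hoechst) and imaged at 4×. Doses were one drug alone or a fixed anchor-drug dose plus five library-drug doses (not always all listed) in √10 steps, and values are duplicate-plate medians.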

[2] = test system: RERF-LC-KJ
In short: as §1

[3] = test system: NCI-H661
In short: as §1

[4] = test system: NCI-H441
In short: as §1

[5] = test system: EKVX
In short: as §1

[6] = test system: NCI-H1734
In short: as §1

[7] = test system: NCI-H1915
In short: as §1

[8] = test system: NCI-H1650
In short: as §1

[9] = test system: NCI-H2347
In short: as §1

[10] = test system: PC-3 [JPC-3]
In short: as §1

[11] = test system: COR-L 105
In short: as §1

[12] = test system: 201T
In short: as §1

[13] = test system: LU99A
In short: as §1

[14] = test system: LC-2-ad
In short: as §1

[15] = test system: SW 900
In short: as §1

[16] = test system: COR-L23
In short: as §1

[17] = test system: LK-2
In short: as §1

[18] = test system: BEN
In short: as §1

[19] = test system: HCC-366
In short: as §1

[20] = test system: HCC-15
In short: as §1

[21] = test system: HCC-78
In short: as §1

[22] = test system: NCI-H1944
In short: as §1

[23] = test system: NCI-H1755
In short: as §1

[24] = test system: NCI-H1648
In short: as §1

Oc1nc(-c2ccc(C(F)(F)F)cc2)nc2c1CSCC2 [XAV939] + Nc1ncn([C@H]2C[C@H](O)[C@@H](CO)O2)c(=O)n1 [Decitabine] (partner 2 µM)
relative viability ([1]; first compound 0.08 µM): 0.327
relative viability ([1]; first compound 0.253 µM): 0.269
relative viability ([1]; first compound 0.8 µM): 0.321
relative viability ([1]; first compound 2.53 µM): 0.254
relative viability ([2]; first compound 0.08 µM): 0.717
relative viability ([2]; first compound 0.253 µM): 0.657
relative viability ([2]; first compound 0.8 µM): 0.583
relative viability ([2]; first compound 2.53 µM): 0.552
relative viability ([3]; first compound 0.08 µM): 0.542
relative viability ([3]; first compound 0.253 µM): 0.493
relative viability ([3]; first compound 0.8 µM): 0.544
relative viability ([3]; first compound 2.53 µM): 0.509
relative viability ([4]; first compound 0.08 µM): 0.25
relative viability ([4]; first compound 0.253 µM): 0.253
relative viability ([4]; first compound 0.8 µM): 0.232
relative viability ([4]; first compound 2.53 µM): 0.251
relative viability ([5]; first compound 0.08 µM): 0.329
relative viability ([5]; first compound 0.253 µM): 0.336
relative viability ([5]; first compound 0.8 µM): 0.356
relative viability ([5]; first compound 2.53 µM): 0.262
relative viability ([6]; first compound 0.08 µM): 0.489
relative viability ([6]; first compound 0.253 µM): 0.433
relative viability ([6]; first compound 0.8 µM): 0.494
relative viability ([6]; first compound 2.53 µM): 0.475
relative viability ([7]; first compound 0.08 µM): 0.253
relative viability ([7]; first compound 0.253 µM): 0.25
relative viability ([7]; first compound 0.8 µM): 0.265
relative viability ([7]; first compound 2.53 µM): 0.268
relative viability ([8]; first compound 0.08 µM): 0.407
relative viability ([8]; first compound 0.253 µM): 0.445
relative viability ([8]; first compound 0.8 µM): 0.361
relative viability ([8]; first compound 2.53 µM): 0.439
relative viability ([9]; first compound 0.08 µM): 0.62
relative viability ([9]; first compound 0.253 µM): 0.586
relative viability ([9]; first compound 0.8 µM): 0.607
relative viability ([9]; first compound 2.53 µM): 0.517
relative viability ([10]; first compound 0.253 µM): 0.724
relative viability ([10]; first compound 0.8 µM): 0.837
relative viability ([10]; first compound 2.53 µM): 0.784
relative viability ([11]; first compound 0.08 µM): 0.719
relative viability ([11]; first compound 0.253 µM): 0.551
relative viability ([11]; first compound 0.8 µM): 0.587
relative viability ([11]; first compound 2.53 µM): 0.563
relative viability ([12]; first compound 0.08 µM): 0.87
relative viability ([12]; first compound 0.253 µM): 0.901
relative viability ([12]; first compound 0.8 µM): 0.779
relative viability ([12]; first compound 2.53 µM): 0.788
relative viability ([13]; first compound 0.08 µM): 0.986
relative viability ([13]; first compound 0.253 µM): 0.725
relative viability ([13]; first compound 0.8 µM): 0.807
relative viability ([13]; first compound 2.53 µM): 0.921
relative viability ([14]; first compound 0.08 µM): 0.786
relative viability ([14]; first compound 0.253 µM): 0.719
relative viability ([14]; first compound 0.8 µM): 0.872
relative viability ([14]; first compound 2.53 µM): 0.733
relative viability ([15]; first compound 0.253 µM): 0.454
relative viability ([15]; first compound 0.8 µM): 0.438
relative viability ([15]; first compound 2.53 µM): 0.428
relative viability ([16]; first compound 0.08 µM): 0.444
relative viability ([16]; first compound 0.253 µM): 0.414
relative viability ([16]; first compound 0.8 µM): 0.424
relative viability ([16]; first compound 2.53 µM): 0.378
relative viability ([17]; first compound 0.08 µM): 0.263
relative viability ([17]; first compound 0.253 µM): 0.322
relative viability ([17]; first compound 0.8 µM): 0.318
relative viability ([17]; first compound 2.53 µM): 0.189
relative viability ([18]; first compound 0.08 µM): 0.73
relative viability ([18]; first compound 0.253 µM): 0.72
relative viability ([18]; first compound 0.8 µM): 0.763
relative viability ([18]; first compound 2.53 µM): 0.597
relative viability ([19]; first compound 0.08 µM): 0.329
relative viability ([19]; first compound 0.253 µM): 0.299
relative viability ([19]; first compound 0.8 µM): 0.326
relative viability ([19]; first compound 2.53 µM): 0.31
relative viability ([20]; first compound 0.08 µM): 0.702
relative viability ([20]; first compound 0.253 µM): 0.656
relative viability ([20]; first compound 0.8 µM): 0.656
relative viability ([20]; first compound 2.53 µM): 0.635
relative viability ([21]; first compound 0.08 µM): 0.679
relative viability ([21]; first compound 0.253 µM): 0.655
relative viability ([21]; first compound 0.8 µM): 0.732
relative viability ([21]; first compound 2.53 µM): 0.642
relative viability ([22]; first compound 0.08 µM): 0.424
relative viability ([22]; first compound 0.253 µM): 0.439
relative viability ([22]; first compound 0.8 µM): 0.44
relative viability ([22]; first compound 2.53 µM): 0.403
relative viability ([23]; first compound 0.08 µM): 0.693
relative viability ([23]; first compound 0.253 µM): 0.677
relative viability ([23]; first compound 0.8 µM): 0.72
relative viability ([23]; first compound 2.53 µM): 0.691
relative viability ([24]; first compound 0.253 µM): 0.423
relative viability ([24]; first compound 0.8 µM): 0.386
relative viability ([24]; first compound 2.53 µM): 0.438

— the supplement of paper PMC10307832
